# From paper PMC5024318, “Crystal structures of the bifunctional tRNA methyltransferase Trm5a” (Scientific Reports, 2016)
# Experiments:
# [1] = target: T1, PaTrm5a (Pyrococcus abyssi, UniProt Q9V2G1); test: X-ray crystal structure, cocrystallisation with SAM (MTA as its degradation product), […] Å; format: binding; conditions: PEG 3350, HEPES pH 7.5, Ca(OAc)2, KCl, 25 °C; SAM site in D3
# T1 construct: gene taw22
# [2] = target: T1, PaTrm5a; test: X-ray crystal structure, cocrystallisation, […] Å; format: binding; conditions: PEG 3350, HEPES pH 7.5, Ca(OAc)2, KCl, 25 °C; SAM site in D3
# T1 sequence (Q9V2G1 whole entry): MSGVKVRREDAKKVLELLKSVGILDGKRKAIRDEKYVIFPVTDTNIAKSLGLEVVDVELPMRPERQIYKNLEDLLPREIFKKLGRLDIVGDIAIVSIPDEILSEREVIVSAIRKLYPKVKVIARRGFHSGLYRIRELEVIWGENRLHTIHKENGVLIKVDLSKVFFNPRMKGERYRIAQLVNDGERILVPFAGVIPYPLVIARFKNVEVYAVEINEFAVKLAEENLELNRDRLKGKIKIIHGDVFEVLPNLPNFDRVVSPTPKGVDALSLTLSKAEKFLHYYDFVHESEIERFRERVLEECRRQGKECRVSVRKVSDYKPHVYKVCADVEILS
smiles,measurement,setting,value
"CSC[C@H]1O[C@@H](n2cnc3c(N)ncnc32)[C@H](O)[C@@H]1O [MTA, 5′-methylthioadenosine]","X-ray crystal structure, cocrystallisation with SAM (MTA as its degradation prod)",[1],"MTA fits well in the ligand-binding pocket, and interacts with the enzyme"
"Nc1ncnc2c1ncn2[C@@H]1O[C@H](CSCC[C@H](N)C(=O)O)[C@@H](O)[C@H]1O [SAH, S-adenosyl-L-homocysteine]","X-ray crystal structure, cocrystallisation, 2.00 Å",[2],the adenosine moiety and the methionine group are specifically recognised by hydrogen bonding interactions
